Patent US11512053B2, “Arginine methyltransferase inhibitors and uses thereof” (priority 2013, dated 2022)
Where a name gives a salt, the structure may show the parent alone. Read-outs that look alike come from different tables or passages of the source.

Key:
[1] = target: full-length human PRMT1 isoform 1 (GST-tagged) (Homo sapiens, UniProt Q99873); assay: PRMT1 Biochemical Assay (3H-SAM Flashplate, peptide substrate)
In short: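 GST-tagged full-length PRMT1 from baculovirus-infected cells, preincubated 30 min at room temperature with compound in 20 mM Bicine pH 7.6, TCEP, BSG, Tween 20. Reaction started with 3H-SAM plus biotinylated peptide, stopped with 300 uM unlabelled SAM. Streptavidin Flashplate capture and scintillation counting; % inhibition curve-fitted for IC50.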

[2] = target: full-length human PRMT6 (Flag- and His-tagged) (Homo sapiens, UniProt Q96LA8); assay: PRMT6 Biochemical Assay (3H-SAM Flashplate, peptide substrate); settings: read-out: Biochemical IC50 PRMT6
full-length human PRMT6 (Flag- and His-tagged), sequence (Q96LA8 with tags, fused parts or gaps): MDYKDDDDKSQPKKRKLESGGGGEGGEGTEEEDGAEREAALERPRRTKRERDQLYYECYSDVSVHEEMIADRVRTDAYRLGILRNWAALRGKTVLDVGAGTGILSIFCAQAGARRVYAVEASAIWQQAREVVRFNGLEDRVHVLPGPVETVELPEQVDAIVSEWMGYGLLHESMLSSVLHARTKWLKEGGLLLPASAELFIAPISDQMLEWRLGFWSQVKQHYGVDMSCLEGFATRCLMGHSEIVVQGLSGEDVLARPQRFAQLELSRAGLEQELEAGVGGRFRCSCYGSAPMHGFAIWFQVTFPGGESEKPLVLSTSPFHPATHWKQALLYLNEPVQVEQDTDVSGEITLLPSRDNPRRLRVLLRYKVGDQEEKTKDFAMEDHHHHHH
In short: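 Flag/His-tagged full-length human PRMT6 (1 nM) preincubated with compound 30 min at room temperature in Bicine pH 7.6 buffer, then reaction started with 3H-SAM 200 nM plus unlabeled SAM 250 nM and biotinylated H4 36-50 peptide (K44me1) 75 nM; 2% DMSO. Quenched with 400 uM cold SAM; labeled peptide captured on streptavidin Flashplate, counted; % inhibition vs DMSO and 1 mM SAH controls fit by 3- or 4-parameter curve.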

[3] = single experiment or average of multiple experiments

full-length human PRMT1 isoform 1 (GST-tagged), sequence (Q99873 with tags, fused parts or gaps): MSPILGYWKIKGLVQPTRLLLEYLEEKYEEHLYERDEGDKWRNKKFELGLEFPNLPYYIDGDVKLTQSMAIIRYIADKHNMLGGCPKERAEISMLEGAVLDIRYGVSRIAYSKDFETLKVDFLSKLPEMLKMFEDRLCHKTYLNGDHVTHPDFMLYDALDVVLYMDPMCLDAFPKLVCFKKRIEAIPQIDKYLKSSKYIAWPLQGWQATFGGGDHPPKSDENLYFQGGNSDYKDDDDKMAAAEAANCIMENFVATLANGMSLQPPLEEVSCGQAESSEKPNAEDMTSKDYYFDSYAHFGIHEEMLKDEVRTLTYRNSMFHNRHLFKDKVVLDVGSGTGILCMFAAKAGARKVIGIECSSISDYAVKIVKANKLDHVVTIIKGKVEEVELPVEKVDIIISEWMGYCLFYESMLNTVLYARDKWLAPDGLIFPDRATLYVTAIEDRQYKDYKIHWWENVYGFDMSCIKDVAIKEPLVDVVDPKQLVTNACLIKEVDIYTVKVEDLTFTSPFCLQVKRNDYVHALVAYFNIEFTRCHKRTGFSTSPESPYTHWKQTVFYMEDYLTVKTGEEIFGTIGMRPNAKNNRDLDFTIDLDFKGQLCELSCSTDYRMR

Row | SMILES | IC50 [1] [nM] | IC50 [1, 3] [nM] | IC50 [2] [nM] | IC50 [2, 3] [nM]
1 | CNCCN(C)Cc1c[nH]nc1C1CCC(Oc2ccccc2)CC1 (centres unmarked) [Compound 67] | < 100 | 7.8 | < 100 | 18
2 | CNCCN(C)Cc1ccnn1C1CCC2(CCCC2)CC1 [Compound 275, Methyl[2-(methylamino)ethyl][(1-[spiro[4.5]decan-8-yl]-1H-pyrazol-5-yl)methyl]amine trifluoroacetate] | < 100 | 4.62 | < 100 | 18.6
3 | CNCCN(C)Cc1c[nH]nc1C1CCC2(CCCC2)CC1 [Compound 48] | < 100 | 7.4 | < 100 | 17.8
4 | CNCCN(C)Cc1c[nH]nc1C1CCC2(CCOC2)CC1 (centres unmarked) [Compound 54] | < 100 | 8 | < 100 | 38.2
5 | CNCCN(C)Cc1c[nH]nc1C1CCC(COC)CC1 (centres unmarked) [Compound 53] | < 100 | 10.5 | < 100 | 38
6 | CN(CCN)Cc1n[nH]cc1C1CCCCC1 [Compound 33] |  | 20 |  | 20
7 | CN(CCN)Cc1c[nH]nc1C1=CCCC1 [Compound 25] |  | 250 |  | 290
8 | CNCCN(C)Cc1cnn(C)c1C1CCC2(CCCC2)CC1 [Compound 49] | < 100 | 4.3 | < 100 | 19.9
9 | CNCCN(C)Cc1c[nH]nc1C1CCC(C)(C)C(C(=O)NCc2ccccc2)C1 (centres unmarked) [Compound 92] | < 100 | 20.9 | < 100 | 49
10 | CN(CCN)Cc1c[nH]nc1/C=C/c1cccc(F)c1 [Compound 20] |  | 20 |  | 20
11 | CNCCN(C)Cc1c[nH]nc1C1CCC(C)(C)C(C(=O)NCCC(C)C)C1 (centres unmarked) [Compound 91] | < 100 | 16.7 | < 100 | 63.1
12 | CN(CCN)Cc1c[nH]nc1/C=C/c1cccc(C(F)(F)F)c1 [Compound 16] |  | 20 |  | 150
13 | CN(CCN)Cc1c[nH]nc1/C=C/Cc1ccccc1 [Compound 24] |  | 20 |  | 180
14 | CNCCN(C)Cc1cn(C)nc1C1CCC2(CCCC2)CC1 [Compound 47] | < 100 | 4.3 | < 100 | 17.3
15 | CNCCN(C)Cc1c[nH]nc1C1CCC(COC(C)C)(COC(C)C)CC1 [Compound 61] | < 100 | 20.5 | < 100 | 49.1
16 | CNCCN(C)Cc1c[nH]nc1C1CCC2(CCCCC2)CC1 [Compound 46] | < 100 | 7.9 | < 100 | 12.2
17 | CNCCN(C)Cc1c[nH]nc1C#Cc1cccc(OC)c1 [Compound 1] |  | 10 |  | 70
18 | CC(C)c1n[nH]cc1CN(C)CCN [Compound 21] |  | 1490 |  | 670
19 | CN(CCN)Cc1c[nH]nc1C1CCC2(CCCC2)CC1 [Compound 45] | < 100 | 2.8 | < 100 | 5.6
20 | CNCCN(C)Cc1c[nH]nc1[C@H]1CCC(C)(C)[C@@H](C(=O)NCCCOC)C1 [Compound 270] | < 100 | 62.5 | 101 to 1000 | 149
21 | CNCCN(C)Cc1c[nH]nc1C1CCC2(CC1)CC(C)OC(C)C2 (centres unmarked) [Compound 63] | < 100 | 9 | < 100 | 12.1
22 | CNCCN(C)Cc1c[nH]nc1C#Cc1ccc(C(C)(C)C)cc1 [Compound 2] |  | 10 |  | 40
23 | CNCCN(C)Cc1c[nH]nc1C1CCC(COC)(COC)CC1 [Compound 57] | < 100 | 18.6 | < 100 | 69.4
24 | CNCCN(C)Cc1c[nH]nc1C1CCC(C)(C)[C@H](OCCCOC)C1 (some centres unmarked) [Compound 272] | < 100 | 12.4 | < 100 | 73.9
